Reference: patent US11155546B2, “4,6,7-trisubstituted 1,2-dihydropyrrolo[3,4-c]pyridin/pyrimidin-3-one derivatives and uses thereof” (SHANGHAI HAIYAN PHARMACEUTICAL TECHNOLOGY CO., LTD., priority 2017, dated 2021)

Key:
[1] = molecular target: BTK WT (Homo sapiens (Human), UniProt Q06187); experiment: Lantha screening kinase reaction, inhibition of BTK WT; format: biochemical
Method: The compound was predissolved in 100% DMSO. 10 mM drug stock solution was obtained by dissolution at room temperature and then serially diluted with 8 vol % DMSO solution to a final concentration of 10-0.005 μM. […] Among the wells, the kinase in the blank well was replaced with a reaction buffer and the kinase well (Enzyme) was not added with any drug. After shaking at 25° C. for 60 minutes in the dark, 10 μl of Detection Solution (mixture of Invitrogen PV3528 and EDTA, which was diluted with TR-FRET dilution buffer, the working concentration of EDTA was 5 mM, the working concentration of Lanthascreening Tb PY20 antibody was 0.2 nM) was added and shaken at room temperature for 30 minutes. The plates were read on a VictorX5 fluorescent plate reader (PerkinElmer) and the light absorption at an excitation wavelength of 340 nm and emission wavelengths of 500 nm and 520 nm was measured.
The calculation method for the inhibition ratio (referring to the specification of Invitrogen, PV3363) was as follows: Emission ratio (ER):Coumarin Emission (520 nm)/Fluorescein Emission (500 nm) 1. The inhibition ratio (IR):(ERkinase−ERtest compound)/(ERkinase−ERblank)×100%. 2.
The half-inhibitory concentration IC50 was calculated by fitting with XLFIT5.0 software (IDBS, UK).

[2] = molecular target: βBTK Y223 (Homo sapiens (Human), UniProt Q06187); experiment: Intracellular βBTK Y223 phosphorylation HTRF in Ramos cells; format: cell-based
Method: The compound was predissolved in 100% DMSO. […] 20 μl of lysate (4× lysate: blocked mother liquor is 25:1) was added to each well and incubated for 30 minutes at 25° C. on a shaker. It was shaken on an oscillator at 800 rpm for 1 minute. […] The half-inhibitory concentration IC50 was calculated by fitting with XLFIT 5.0 software (IDBS, UK).

[3] = molecular target: wild-type EGFR kinase (Homo sapiens (Human), UniProt P00533); experiment: Wild type EGFR kinase inhibition test (z-lyte); format: biochemical; conditions: 10 μM ATP; read-out: EGFR WT IC50
From the text: All the following reagents used in z-lyte test are commercially available from Invitrogen.
The calculation method for the inhibition ratio (referring to the specification of Invitrogen, PV3363) was as follows: ER=Coumarin Emission(450 nm)/Fluorescein Emission(520 nm) 1. Phosphorylation ratio=(1−((ER×C3520nm−C3450nm)/((C1450nm−C3450nm)+ER×(C3520nm−C1520nm))))×100% 2. Inhibition ratio (IR)=(1−phosphorylation ratio of the test compound)/(phosphorylation ratio of C2))×100% 3.
The half-inhibitory concentration IC50 was calculated by fitting with XLFIT 5.0 software (IDBS, UK).

[4] = in vivo
Method: Test Animals: ICR mice, weight 28-30 g, male, totally 12, purchased from SLAC Laboratory Animal Co., Ltd. Mice were fasting one night before administration and freely fed 4 hours after administration.
Administration and Blood collection: 6 mice were administered intragastrically (PO) in a administered dosage of 30 mg/kg and a administered volume of 10 mL/kg. One administration route was subjected with 6 mice, blood samples of three mice were collected at one time point, and blood samples of another three mice were collected at alternate time point alternately. Blood was collected at 8 time points of 0.083, 0.25, 0.5, 1, 2, 4, 8, 24 h after administration respectively.
Animals were manually controlled at the time of collection and approximately 80 μL of blood was collected from the mice fundus venous plexus into a tube containing K2EDTA. The collected blood sample was put on wet ice, centrifuged within 15 min (8000 rpm, 4 min at 4° C.), and then the plasma sample was taken and stored at minus 20° C. till analysis. The compounds were prepared on the day of the experiment.
Solvent excipient information: DMSO (brand: Sigma, batch number: SHBD2446V); 2-hydroxypropyl-3-cyclodextrin (brand: Sigma, batch number: BCBN8227V), acetic acid (brand: Sinopharm Group, batch number: 20150616), sodium acetate (Brand: GENERAL-REAGENT, batch number: P1246037).
Preparation of a 3 mg/mL PO dosing solution: the solvent was a solution of 5% DMSO and 95% PH4.5 (sodium acetate-acetate) in 20% of 2-hydroxypropyl-β-cyclodextrin.
Analytical method: Plasma samples were analyzed by liquid chromatography-tandem mass spectrometry (Instrument type: Triple Quad™ 4000).
Preparation of the standard curve: preparing a standard curve of the test compound 1n the plasma matrix of ICR mice with a linear range of 1.00-3000 ng/mL, and preparing control samples at low, medium and high concentrations of 3 ng/mL, 500 ng/mL, and 2400 ng/mL respectively.
Treatment of biological samples: the frozen plasma samples were thawed on ice, and after the samples were thawed, they were vortexed on a vortex for 5 min. 20 μL of plasma sample was added to a 96-well plate, and 200 μL of acetonitrile (brand: Merck, Lot: 1854029643) containing an internal standard dexamethasone (Brand: NIFDC, Lot: 1N2V-DPGY, 2000 ng/mL) was added to precipitate protein, which were vortexed for 5 min, and then centrifuged at 3700 rpm and 4° C. for 15 min. The supernatant was extracted and twice centrifuged under the same conditions, and finally 2 μL of the supernatant solution was analyzed by LC-MS/MS.

[5] = male, ICR, mouse, in vivo, po, 30 mg/kg

βBTK Y223, sequence (Q06187 whole entry): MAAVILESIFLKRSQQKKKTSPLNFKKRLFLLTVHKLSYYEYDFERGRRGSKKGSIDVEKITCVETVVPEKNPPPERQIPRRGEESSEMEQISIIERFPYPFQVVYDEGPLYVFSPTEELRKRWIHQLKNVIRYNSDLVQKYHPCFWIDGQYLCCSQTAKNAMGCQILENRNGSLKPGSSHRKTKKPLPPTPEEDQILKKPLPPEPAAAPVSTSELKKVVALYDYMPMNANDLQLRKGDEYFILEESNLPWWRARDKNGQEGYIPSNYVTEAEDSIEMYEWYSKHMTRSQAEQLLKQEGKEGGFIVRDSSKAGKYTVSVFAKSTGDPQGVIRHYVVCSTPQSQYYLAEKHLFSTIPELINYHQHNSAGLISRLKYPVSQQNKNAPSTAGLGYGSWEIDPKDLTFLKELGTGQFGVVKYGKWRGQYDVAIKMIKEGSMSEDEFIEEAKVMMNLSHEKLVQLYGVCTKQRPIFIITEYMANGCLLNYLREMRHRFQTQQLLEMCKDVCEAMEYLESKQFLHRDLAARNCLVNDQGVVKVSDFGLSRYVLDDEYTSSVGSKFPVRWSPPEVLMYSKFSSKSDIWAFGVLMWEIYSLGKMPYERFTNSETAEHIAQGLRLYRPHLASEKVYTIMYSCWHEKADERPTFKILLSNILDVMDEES
BTK WT, sequence (Q06187 whole entry): as above
wild-type EGFR kinase, sequence (P00533 25-1210): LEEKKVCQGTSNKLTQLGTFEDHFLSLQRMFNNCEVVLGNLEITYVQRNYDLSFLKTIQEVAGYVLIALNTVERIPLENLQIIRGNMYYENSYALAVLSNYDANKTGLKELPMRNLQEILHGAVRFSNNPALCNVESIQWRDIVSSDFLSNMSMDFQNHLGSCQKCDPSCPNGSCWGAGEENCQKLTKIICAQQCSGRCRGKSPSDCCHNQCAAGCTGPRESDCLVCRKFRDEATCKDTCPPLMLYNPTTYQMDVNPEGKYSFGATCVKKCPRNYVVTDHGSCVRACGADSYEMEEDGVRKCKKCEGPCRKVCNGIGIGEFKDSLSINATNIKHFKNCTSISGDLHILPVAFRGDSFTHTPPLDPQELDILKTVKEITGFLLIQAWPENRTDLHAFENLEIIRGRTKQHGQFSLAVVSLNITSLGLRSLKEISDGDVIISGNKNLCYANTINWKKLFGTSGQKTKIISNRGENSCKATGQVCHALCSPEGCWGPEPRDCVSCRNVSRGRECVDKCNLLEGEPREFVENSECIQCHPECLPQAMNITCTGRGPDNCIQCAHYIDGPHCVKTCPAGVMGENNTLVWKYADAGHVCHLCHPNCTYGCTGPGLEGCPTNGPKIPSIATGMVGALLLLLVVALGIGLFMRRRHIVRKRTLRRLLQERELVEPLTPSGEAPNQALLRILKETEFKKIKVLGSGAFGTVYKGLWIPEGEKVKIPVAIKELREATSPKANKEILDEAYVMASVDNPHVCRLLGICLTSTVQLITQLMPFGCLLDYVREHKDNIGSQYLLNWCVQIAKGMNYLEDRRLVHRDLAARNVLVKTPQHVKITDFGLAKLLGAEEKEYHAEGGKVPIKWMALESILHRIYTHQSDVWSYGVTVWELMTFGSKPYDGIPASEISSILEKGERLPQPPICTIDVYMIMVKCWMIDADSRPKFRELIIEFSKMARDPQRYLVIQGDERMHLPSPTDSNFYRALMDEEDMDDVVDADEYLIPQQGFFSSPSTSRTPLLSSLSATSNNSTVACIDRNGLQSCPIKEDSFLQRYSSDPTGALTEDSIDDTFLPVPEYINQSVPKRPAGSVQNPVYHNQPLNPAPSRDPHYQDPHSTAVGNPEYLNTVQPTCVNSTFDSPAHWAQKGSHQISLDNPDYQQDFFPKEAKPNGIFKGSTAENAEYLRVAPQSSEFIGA

## C=CC(=O)N1CCCC(Nc2nc(-c3cnn(C)c3)c3c(c2F)CNC3=O)C1 (stereo not drawn) [Compound G-7, 6-(1-acryloylpiperidin-3-ylamino)-7-fluoro-4-(1-methyl-1H-pyrazole-4-yl)-1H-pyrrolo[3,4-c]pyridine-3(2H)-one]
[1]
  IC50: 35 nM
[2]
  IC50: 11 nM
[3]
  IC50: 3950 nM
[4]; [5]
  AUC: 1330 ng·h/mL
  Cmax: 1830 ng/mL
  Tmax: 4.8 min
  bioavailability: 25.4%
  half-life: 93 min

## C=CC(=O)N1CCCC(Nc2nc(Nc3ccc(N4CCOCC4)c(Cl)c3)c3c(c2F)CNC3=O)C1 (stereo not drawn) [Compound G-39]
[1]
  IC50: 2 nM
[2]
  IC50: 3 nM
[3]
  IC50: 6310 nM
[4]; mouse, in vivo, po, 30 mg/kg
  Area under curve AUC: 1182 ng·h/mL
  Maximum blood concentration Cmax: 1501.0 ng/mL
  Oral relative bioavailability F (%): 15.2%
  Tmax: 4.8 min
  half-time T1/2: 138 min

## C=CC(=O)N1CC(Nc2nc(-c3cnn(C)c3)c3c(c2F)CNC3=O)CCC1C (stereo not drawn) [Compound G-26, 6-(1-acryloyl-6-methylpiperidin-3-ylamino)-7-fluoro-4-(1-methyl-1H-pyrazole-4-yl)-1H-pyrrolo[3,4-c]pyridine-3(2H)-one]
[1]
  IC50: 27 nM
[2]
  IC50: 47 nM
[3]
  IC50: 6690 nM
[4]; [5]
  AUC: 1290 ng·h/mL
  Cmax: 2400 ng/mL
  Tmax: 4.8 min
  bioavailability: 13.1%
  half-life: 127 min

## C=CC(=O)N1CCCC(Nc2nc(Nc3ccc(OCCOC)cc3)c3c(c2F)CNC3=O)C1 (stereo not drawn) [Compound G-2, 6-(1-acryloylpiperidin-3-ylamino)-7-fluoro-4-(4-(2-methoxyethoxy)phenylamino)-1H-pyrrolo[3,4-c]pyridine-3 (2H)-one]
[1]
  IC50: 3 nM
[2]
  IC50: 5 nM
[3]
  IC50: 1620 nM

## C=CC(=O)N1CCCC(Nc2nc3c(c(Nc4cnn(C)c4)n2)C(=O)NC3)C1 (stereo not drawn) [Compound G-59, 2-(1-acryloylpiperidin-3-ylamino)-4-(1-methyl-1H-pyrazole-4-ylamino)-6,7-dihydrogen-5H-pyrrolo[3,4-d]pyrimidine-5-one]
[1]
  IC50: 13 nM
[2]
  IC50: 16 nM
[3]
  IC50: 1020 nM

## C=CC(=O)N1CCCC(Nc2nc(Nc3ccc(N4CCOCC4)cc3)c3c(c2F)CNC3=O)C1 (stereo not drawn) [Compound G-14]
[1]
  IC50: 3 nM
[2]
  IC50: 3 nM
[3]
  IC50: 4130 nM
[4]; mouse, in vivo, po, 30 mg/kg
  Area under curve AUC: 1072 ng·h/mL
  Maximum blood concentration Cmax: 1240.0 ng/mL
  Oral relative bioavailability F (%): 13.7%
  Tmax: 4.8 min
  half-time T1/2: 148 min

## C=CC(=O)N1CCCC(Nc2nc(Nc3cnn(C4CCS(=O)(=O)CC4)c3)c3c(c2F)CNC3=O)C1 (stereo not drawn) [Compound G-13]
[1]
  IC50: 3 nM
[2]
  IC50: 45 nM
[3]
  IC50: 1600 nM

## C=CC(=O)N1CCCC(N(C)c2nc(Nc3ccc(N4CCOCC4)cc3)c3c(c2F)CNC3=O)C1 (stereo not drawn) [Compound G-71, 6-((1-acryloylpiperidin-3-yl)(methyl)amino)-7-fluoro-4-(4-morpholin)-1H-pyrrolo[3,4-c]pyridine-3 (2H)-one]
[1]
  IC50: 5 nM
[2]
  IC50: 3 nM
[3]
  IC50: 1590 nM
[4]; [5]
  AUC: 606 ng·h/mL
  Cmax: 533 ng/mL
  Tmax: 4.8 min
  bioavailability: 7.4%
  half-life: 679 min
[4]; mouse, in vivo, po, 30 mg/kg
  efficacy of the compound in mice compared with the compound without substituent on the nitrogen atom attached to the piperidine ring: significantly lower

## C=CC(=O)N1CCCC(N(C)c2nc(Nc3cc(C)ns3)c3c(c2F)CNC3=O)C1 (stereo not drawn) [Compound G-72, 6-((1-acryloylpiperidin-3-yl)(methyl)amino)-7-fluoro-4-(3-methylisothiazole-5-ylamino)-1H-pyrrolo[3,4-c]pyridine-3(2H)-one]
[1]
  IC50: 5 nM
[2]
  IC50: 4 nM
[3]
  IC50: 1660 nM
[4]; [5]
  AUC: 107 ng·h/mL
  Cmax: 10.7 ng/mL
  Tmax: 15 min
  half-life: 679 min
[4]; mouse, in vivo, po, 30 mg/kg
  efficacy of the compound in mice compared with the compound without substituent on the nitrogen atom attached to the piperidine ring: significantly lower

## C=CC(=O)N1CCCCC(Nc2nc(Nc3ccc(N4CCOCC4)cc3)c3c(c2F)CNC3=O)C1 (stereo not drawn) [Compound G-27]
[1]
  IC50: 5 nM
[2]
  IC50: 11 nM
[3]
  IC50: 3690 nM

## C=CC(=O)N1CCCC(Nc2nc(Nc3cnn(C)c3)c3c(c2F)CNC3=O)C1 (stereo not drawn) [Compound G-25]
[1]
  IC50: 2 nM
[2]
  IC50: 2 nM
[3]
  IC50: 1090 nM

## C=CC(=O)NC1CN(c2nc(Nc3ccc(N4CCOCC4)cc3)c3c(c2F)CNC3=O)CC1F (stereo not drawn) [Compound G-86, N-(4-fluoro-1-(7-fluoro-4-(4-morpholin)-3-oxo-2,3-dihydro-1H-pyrrolo[3,4-c]pyridin-6-yl)pyrrolidinepyridine-3-yl)acrylamide]
[1]
  IC50: 1 nM
[2]
  IC50: 5 nM
[3]
  IC50: 1180 nM

## C=CC(=O)N1CCCC(N(C)c2nc(-c3cnn(C)c3)c3c(c2F)CNC3=O)C1 (stereo not drawn) [Compound G-60, 6-((1-acryloylpiperidin-3-yl)(methyl)amino)-7-fluoro-4-(1-methyl-1H-pyrazole-4-yl)-1H-pyrrolo[3.4-c]pyridine-3 (2H)-one]
[1]
  IC50: 9 nM
[2]
  IC50: 24 nM
[3]
  IC50: > 10000 nM
[4]; ICR mice, PO 30 mg/kg, pairs G-7/G-60, G-14/G-71, G-23/G-72
  efficacy of the compound in mice compared with the compound without substituent on the nitrogen atom attached to the piperidine ring: significantly lower
[4]; mouse, in vivo, po, 30 mg/kg
  Area under curve AUC: 109 ng·h/mL
  Maximum blood concentration Cmax: 351.7 ng/mL
  Oral relative bioavailability F (%): 3%
  Tmax: 4.8 min
  half-time T1/2: 634.2 min

## C=CC(=O)N1CCCC(Nc2nc(Nc3ccc(N4CCOCC4)cc3F)c3c(c2F)CNC3=O)C1 (stereo not drawn) [Compound G-31]
[1]
  IC50: 7 nM
[2]
  IC50: 11 nM
[3]
  IC50: 7930 nM
[4]; mouse, in vivo, po, 30 mg/kg
  Area under curve AUC: 1839 ng·h/mL
  Maximum blood concentration Cmax: 1237.0 ng/mL
  Oral relative bioavailability F (%): 28.2%
  Tmax: 15 min
  half-time T1/2: 103 min
